Assay results as given in US10358427B2, “Modulators of indoleamine 2,3-dioxygenase” (GLAXOSMITHKLINE INTELLECTUAL PROPERTY DEVELOPMENT LIMITED, priority 2015, dated 2019).
pEC50: −log10 of the molar value.

Assays:
[1] = target: T1, indoleamine 2, 3-dioxygenase (IDO1) (Homo sapiens, UniProt P14902); assay: PBMC IDOi assay (kynurenine detection via mass spectrometry); assay type: cell-based; conditions: human PBMC stimulated with IFN-γ and LPS; kynurenine by mass spectrometry; 2 days incubation
Experimental: (§1) Compounds of the present invention were tested via high-throughput cellular assays utilizing detection of kynurenine via mass spectrometry and cytotoxicity as end-points. For the mass spectrometry and cytotoxicity assays, human peripheral blood mononuclear cells (PBMC) (PB003F; AlICells®, Alameda, Calif.) were stimulated with human interferon-γ (IFN-γ) (Sigma-Aldrich Corporation, St. Louis, Mo.) and lipopolysaccharide from Salmonella minnesota (LPS) (Invivogen, San Diego, Calif.) to induce the expression of indoleamine 2, 3-dioxygenase (IDO1). Compounds with IDO1 inhibitory properties decreased the amount of kynurenine produced by the cells via the tryptophan catabolic pathway. Cellular toxicity due to the effect of compound treatment was measured using CellTiter-Glo® reagent (CTG) (Promega Corporation, Madison, Wis.), which is based on luminescent detection of ATP, an indicator of metabolically active cells.
(§2) In preparation for the assays, test compounds were serially diluted 3-fold in DMSO from a typical top concentration of 5 mM and plated at 0.5 μL in 384-well, polystyrene, clear bottom, tissue culture treated plates with lids (Greiner Bio-One, Kremsmünster, Austria) to generate 11-point dose response curves. Low control wells (0% kynurenine or 100% cytotoxicity) contained either 0.5 μL of DMSO in the presence of unstimulated (−IFN-γ/−LPS) PBMCs for the mass spectrometry assay or 0.5 μL of DMSO in the absence of cells for the cytotoxicity assay, and high control wells (100% kynurenine or 0% cytotoxicity) contained 0.5 μL of DMSO in the presence of stimulated (+IFN-γ/+LPS) PBMCs for both the mass spectrometry and cytotoxicity assays.
Frozen stocks of PBMCs were washed and recovered in RPMI 1640 medium (Thermo Fisher Scientific, Inc., Waltham, Mass.) supplemented with 10% v/v heat-inactivated fetal bovine serum (FBS) (Thermo Fisher Scientific, Inc., Waltham, Mass.), and 1× penicillin-streptomycin antibiotic solution (Thermo Fisher Scientific, Inc., Waltham, Mass.). The cells were diluted to 1,000,000 cells/mL in the supplemented RPMI 1640 medium. 50 μL of either the cell suspension, for the mass spectrometry assay, or medium alone, for the cytotoxicity assay, were added to the low control wells, on the previously prepared 384-well compound plates, resulting in 50,000 cells/well or 0 cells/well respectively. IFN-γ and LPS were added to the remaining cell suspension at final concentrations of 100 ng/ml and 50 ng/ml respectively, and 50 μL of the stimulated cells were added to all remaining wells on the 384-well compound plates. The plates, with lids, were then placed in a 37° C., 5% CO2 humidified incubator for 2 days.
(§3) Following incubation, the 384-well plates were removed from the incubator and allowed to equilibrate to room temperature for 30 minutes. For the cytotoxicity assay, CellTiter-Glo® was prepared according to the manufacturer's instructions, and 40 μL were added to each plate well. After a twenty minute incubation at room temperature, luminescence was read on an EnVision® Multilabel Reader (PerkinElmer Inc., Waltham, Mass.). For the mass spectrometry assay, 10 μL of supernatant from each well of the compound-treated plates were added to 40 μL of acetonitrile, containing 10 μM of an internal standard for normalization, in 384-well, polypropylene, V-bottom plates (Greiner Bio-One, Kremsmünster, Austria) to extract the organic analytes. Following centrifugation at 2000 rpm for 10 minutes, 10 μL from each well of the acetonitrile extraction plates were added to 90 μL of sterile, distilled H2O in 384-well, polypropylene, V-bottom plates for analysis of kynurenine and the internal standard on the RapidFire 300 (Agilent Technologies, Santa Clara, Calif.) and 4000 QTRAP MS (SCIEX, Framingham, Mass.). MS data were integrated using Agilent Technologies' RapidFire Integrator software, and data were normalized for analysis as a ratio of kynurenine to the internal standard. […]

[2] = target: T1, indoleamine 2, 3-dioxygenase (IDO1); assay: HeLa IDOi assay (kynurenine detection via mass spectrometry); assay type: cell-based; parameters: human epithelial HeLa cells (CCL-2; host or cells: HeLa cells stimulated with human IFN-γ; conditions: human epithelial HeLa cells stimulated with IFN-γ; kynurenine by mass spectrometry; 2 days incubation
Experimental: as §1, with “epithelial HeLa” for “peripheral blood mononuclear”, “(CCL-2; ATCC®, Manassas, Va.)” for “(PBMC) (PB003F; AlICells®, Alameda, Calif.)”, “Mo.)” for “Mo.) and lipopolysaccharide from Salmonella minnesota (LPS) (Invivogen, San Diego, Calif.)”
as §2, with “(−IFN-γ) HeLa cells” for “(−IFN-γ/−LPS) PBMCs”, “(+IFN-γ) HeLa cells” for “(+IFN-γ/+LPS) PBMCs”
Frozen stocks of HeLa cells were washed and recovered in DMEM high glucose medium with HEPES (Thermo Fisher Scientific, Inc., Waltham, Mass.) supplemented with 10% v/v certified fetal bovine serum (FBS) (Thermo Fisher Scientific, Inc., Waltham, Mass.), and 1× penicillin-streptomycin antibiotic solution (Thermo Fisher Scientific, Inc., Waltham, Mass.). The cells were diluted to 100,000 cells/mL in the supplemented DMEM medium. 50 μL of either the cell suspension, for the mass spectrometry assay, or medium alone, for the cytotoxicity assay, were added to the low control wells, on the previously prepared 384-well compound plates, resulting in 5,000 cells/well or 0 cells/well respectively. IFN-γ was added to the remaining cell suspension at a final concentration of 10 nM, and 50 μL of the stimulated cells were added to all remaining wells on the 384-well compound plates. The plates, with lids, were then placed in a 37° C., 5% CO2 humidified incubator for 2 days.
as §3, with “instructions, and 10 μL were” for “instructions, and 40 μL were”

T1 sequence (P14902 whole entry): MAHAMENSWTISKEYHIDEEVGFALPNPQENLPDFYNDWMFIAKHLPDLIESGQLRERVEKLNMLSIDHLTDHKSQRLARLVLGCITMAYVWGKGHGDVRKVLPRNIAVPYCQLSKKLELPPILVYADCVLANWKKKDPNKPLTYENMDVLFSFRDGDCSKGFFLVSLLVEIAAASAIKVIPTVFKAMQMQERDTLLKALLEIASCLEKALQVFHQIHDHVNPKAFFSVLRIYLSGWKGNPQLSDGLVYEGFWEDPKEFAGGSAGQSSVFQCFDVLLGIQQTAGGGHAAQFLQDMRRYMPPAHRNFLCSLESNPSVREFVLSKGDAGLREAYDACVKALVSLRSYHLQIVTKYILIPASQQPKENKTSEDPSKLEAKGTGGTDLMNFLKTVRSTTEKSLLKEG

Structure (SMILES) | pEC50 [1] | pEC50 [2]
CCCC(CCC)Oc1ccc(-c2ccccc2-c2nnn[nH]2)cc1Nc1nc2ccccc2o1 [Example 16, N-(4-(Heptan-4-yloxy)-2′-(1H-tetrazol-5-yl)-[1,1′-biphenyl]-3-yl)benzo[d]oxazol-2-amine] | 7.20 | 7.00
CC(C)CN(c1ccc(-c2ccccc2C(=O)O)cc1Nc1nc(C(F)(F)F)ns1)C1CCCCC1 [Example 17, 4′-(Cyclohexyl(isobutyl)amino)-3′((3-(trifluoromethyl)-1,2,4-thiadiazol-5-yl)amino)-[1,1′-biphenyl]-2-carboxylic acid] | 9.00 | 8.70
CC(C)CN(c1ccc(-c2ccccc2-c2nnn[nH]2)cc1Nc1nc(C(F)(F)F)ns1)C1CCCCC1 [Example 18, N^4-cyclohexyl-N^4-isobutyl-2′-(1H-tetrazol-5-yl)-N^3-(3-(trifluoromethyl)-1,2,4-thiadiazol-5-yl)-[1,1′-biphenyl]-3,4-diamine] | 8.90 | 8.60
CC(C)CN(c1ccc(-c2ccccc2-c2nnn[nH]2)cc1Nc1nc2ccccc2[nH]1)C1CCCCC1 [Example 19, N^3-(1H-benzo[d]imidazol-2-yl)-N^4-cyclohexyl-N^4-isobutyl-2′-(1H-tetrazol-5-yl)-[1,1′-biphenyl]-3,4-diamine] | 8.80 | 8.20
CC(C)CN(c1ccc(-c2ccccc2C(=O)O)cc1Nc1nnc(C2CC2)s1)C1CCCCC1 [Example 20, 4′-(Cyclohexyl(isobutyl)amino)-3′((5-cyclopropyl-1,3,4-thiadiazol-2-yl)amino)-[1,1′-biphenyl]-2-carboxylic acid] | 9.10 | 8.70
CC(C)CN(c1ccc(-c2ccccc2-c2nnn[nH]2)cc1Nc1nnc(C2CC2)s1)C1CCCCC1 [Example 21, N^4-Cyclohexyl-N^3-(5-cyclopropyl-1,3,4-thiadiazol-2-yl)-N^4-isobutyl-2′-(1H-tetrazol-5-yl)-[1,1′-biphenyl]-3,4-diamine] | 8.80 | 8.50
